Results: US20150254400A1, “GROUPING FOR C[…] CANCER” (AGENCY FOR SCIENCE, TECHNOLOGY AND RESEARCH, priority 2012, published 2015)
“Also recorded” adds a separate entry of the source.

Key:
gastric adenocarcinoma = experiment: Patient survival, surgery plus adjuvant 5-FU based therapy versus surgery alone (Kaplan-Meier, Cox regression); type: in vivo, human; conditions: for HR (95% CI): Multivariate Cox (treatment + stage)
Experimental: A study was done to determine whether there was a difference in survival among the three subtypes. In this study, cancer-specific death was considered as an event unless stated otherwise.
Data from 188 patients in the SG201 Singapore cohort for which survival information was available was analyzed.
Many of the patients in the Singapore cohort were treated with 5-FU. To investigate the effect of 5-FU treatment on patient survival, the survival of Singapore and Australian patients treated with surgery alone were compared to that of patients treated by surgery and adjuvant 5-FU based therapy.
The clinical decision on administration of 5-FU was based on multiple factors, including the patient's general health, risk of relapse (estimated largely by disease stage), treatment-related toxicities, and patient preference.
FIGS. 8A to F show Kaplan-Meier plots for surgery plus 5-FU versus surgery alone for each of the three subtypes.

NCI-60 cell lines = experiment: 5-FU sensitivity of NCI-60 cell lines classified into the three subtypes by GCPred; type: cell-based; conditions: metabolic versus invasive subtype NCI-60 cells, Wilcoxon rank sum test p=0.036
Excerpt: In addition, GCPred was used to classify the NCI-60 cell lines into the three subtypes.

[1] = system: gastric cancer cell lines; experiment: 5-FU sensitivity in vitro of gastric cancer cell lines assigned to the three subtypes by GCPred; type: cell-based
Excerpt: It was then examined whether there are differences in 5-FU sensitivity, in vitro, between gastric cancer cell lines assigned to the three subtypes.
GCPred was first used to predict the subtypes of 28 cell lines for which 5-FU GI50 values had previously been determined.

O=c1[nH]cc(F)c(=O)[nH]1 [5-FU, 5-fluorouracil]
Hazard Ratio (95% CI), treatment (gastric adenocarcinoma; 197 patients in SG and AU cohorts, model ~subtype * treatment + stage, 5-FU vs surgery alone (=1)): 1.437 (0.728, 2.835) | Hazard Ratio (95% CI), subtype: treatment interaction, Invasive: 5-FU (gastric adenocarcinoma; 197 patients in SG and AU cohorts, model ~subtype * treatment + stage, reference Proliferative: 5-FU (=1)): 0.722 (0.287, 1.817) | HR (95% CI) (gastric adenocarcinoma; Australian cohort, invasive subtype, 5-FU vs surgery alone (=1)): 0.222 (0.059, 0.833) | HR (95% CI) (gastric adenocarcinoma; Australian cohort, proliferative subtype, 5-FU vs surgery alone (=1)): 1.938 (0.369, 10.170) | HR (95% CI) (gastric adenocarcinoma; Singapore cohort, invasive subtype, 5-FU vs surgery alone (=1)): 1.062 (0.469, 2.407) | HR (95% CI) (gastric adenocarcinoma; Singapore cohort, proliferative subtype, 5-FU vs surgery alone (=1)): 2.105 (0.879, 5.043) | Deaths among 5-FU treated patients (gastric adenocarcinoma; Singapore cohort, metabolic subtype): no deaths | Hazard ratio (95% CI) (gastric adenocarcinoma; Univariate Cox regression, Singapore cohort, all subtypes, 5-FU vs surgery alone (=1), cancer-specific death): 1.656 (0.983, 2.788) | 5-FU effect on patient survival (gastric adenocarcinoma; invasive subtype): No effect | 5-FU effect on patient survival (gastric adenocarcinoma; metabolic subtype): Beneficial | Survival, Kaplan-Meier, surgery plus 5-FU versus surgery alone (gastric adenocarcinoma; metabolic-subtype patients): benefited; also recorded: better | Disease-free survival, Kaplan-Meier, 5-FU treatment compared to surgery alone (gastric adenocarcinoma; metabolic-subtype patients, log rank test p=0.025): benefited significantly | Benefit from 5-FU treatment by multivariate Cox regression (gastric adenocarcinoma; patients with invasive and proliferative subtypes): does not suggest any benefit | Survival, Kaplan-Meier, surgery plus 5-FU versus surgery alone (gastric adenocarcinoma; patients with invasive and proliferative subtypes, not adjusted for TNM stage): worse | 5-FU effect on patient survival (gastric adenocarcinoma; proliferative subtype): No effect | Sensitivity to 5-FU (NCI-60 cell lines): preferential sensitivity | Sensitivity to 5-FU (GI50 values previously determined) ([1]; 28 cell lines, metabolic versus proliferative subtype cells, Wilcoxon rank sum test p=1.47×10-3): significantly more sensitive | Chemosensitivity in cell lines ([1]; metabolic subtype cell lines): 5-FU
